In the supplement of paper PMC10627819:

Experiments:
[1] = system: S. pneumoniae D39V; assay: fitness (endpoint OD595 vs no drug) (fraction); higher = more growth
Method in brief: (§1)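 Fitness compares growth at the stationary-phase transition with the robust mean of no-drug control wells, as a ratio of optical densities. The ratio is capped at 1. Wells of 384-well plates held 30 µl, or 55 µl for S. pneumoniae, inoculated at OD595 0.01. Readings at OD595 every 30 min for 14 h at 37 °C were corrected against the first reading.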

[2] = system: B. subtilis 168; assay: as above
Method in brief: as §1

[3] = system: S. pneumoniae D39V; assay: Bliss interaction score (quartile over a dose matrix) (fitness difference); higher = more antagonism (negative = synergy)
Method in brief: (§2)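 Fitness here means normalised growth, inferred for single drugs from the combination data. Growth was OD595 at entry into stationary phase, divided by the plate's robust no-drug mean and capped at 1. The Bliss score is observed minus expected fitness, with the expectation being the product, and its quartiles span technical, biological and donor/recipient replicates.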

[4] = system: S. aureus DSM 20231; assay: as above
Method in brief: as §2

[5] = system: B. subtilis 168; assay: as above
Method in brief: as §2

[6] = system: S. aureus Newman; assay: as above
Method in brief: as §2
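Throughout, for Bliss interaction score (quartile over a dose matrix): first quartile when negative (synergy) and third quartile when positive (antagonism).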
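Throughout, for fitness (endpoint OD595 vs no drug): OD595 on entry to stationary phase over no-drug wells; at most 1.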

CN(C)C(=O)C(CCN1CCC(O)(c2ccc(Cl)cc2)CC1)(c1ccccc1)c1ccccc1 [Loperamide] + COc1c(N2C[C@@H]3CCCN[C@@H]3C2)c(F)cc2c(=O)c(C(=O)O)cn(C3CC3)c12 [Moxifloxacin]
Settings | fitness
[1], first compound 17.14 µg/mL, partner 0.0037 µg/mL | 0.897
[1], first compound 17.14 µg/mL, partner 0.0075 µg/mL | 0.952
[1], first compound 17.14 µg/mL, partner 0.015 µg/mL | 0.85
[1], first compound 20 µg/mL, partner 0.005 µg/mL | ≥ 1
[1], first compound 20 µg/mL, partner 0.01 µg/mL | ≥ 1
[1], first compound 20 µg/mL, partner 0.02 µg/mL | ≥ 1
[1], first compound 34.28 µg/mL, partner 0.0037 µg/mL | 0.822
[1], first compound 34.28 µg/mL, partner 0.0075 µg/mL | 0.905
[1], first compound 34.28 µg/mL, partner 0.015 µg/mL | 0.836
[1], first compound 40 µg/mL, partner 0.005 µg/mL | ≥ 1
[1], first compound 40 µg/mL, partner 0.01 µg/mL | ≥ 1
[1], first compound 40 µg/mL, partner 0.02 µg/mL | ≥ 1
[2], first compound 25 µg/mL, partner 0.0312 µg/mL | 0.0408
[2], first compound 25 µg/mL, partner 0.0625 µg/mL | 0.0524
[2], first compound 25 µg/mL, partner 0.125 µg/mL | 0.0382
[2], first compound 25 µg/mL, partner 2 µg/mL | 0.0259
[2], first compound 25 µg/mL, partner 4 µg/mL | 0.0205
[2], first compound 25 µg/mL, partner 8 µg/mL | 0.017
[2], first compound 50 µg/mL, partner 0.0312 µg/mL | 0.0458
[2], first compound 50 µg/mL, partner 0.0625 µg/mL | 0.0525
[2], first compound 50 µg/mL, partner 0.125 µg/mL | 0.068
[2], first compound 50 µg/mL, partner 2 µg/mL | 0.0274
[2], first compound 50 µg/mL, partner 4 µg/mL | 0.0294
[2], first compound 50 µg/mL, partner 8 µg/mL | 0.0145
[2], first compound 100 µg/mL, partner 0.0312 µg/mL | 0.0464
[2], first compound 100 µg/mL, partner 0.0625 µg/mL | 0.0527
[2], first compound 100 µg/mL, partner 0.125 µg/mL | 0.0413
[2], first compound 100 µg/mL, partner 2 µg/mL | 0.0272
[2], first compound 100 µg/mL, partner 4 µg/mL | 0.0176
[2], first compound 100 µg/mL, partner 8 µg/mL | 0.0179

[1], first compound 68.57 µg/mL, one replicate
Settings | fitness
partner 0.0037 µg/mL | 0.729
partner 0.0075 µg/mL | 0.796
partner 0.015 µg/mL | 0.779

Settings | Bliss interaction score
[3] | 0.0769
[4] | 0.13
[5] | 0.035
[6] | 0.0359

C[C@H]1COc2c(N3CCN(C)CC3)c(F)cc3c(=O)c(C(=O)O)cn1c23 [Levofloxacin] + C[n+]1ccc(-c2cc[n+](C)cc2)cc1 [Paraquat]
fitness
Settings | first compound 0.0312 µg/mL | first compound 0.0625 µg/mL | first compound 0.125 µg/mL | first compound 0.1725 µg/mL | first compound 0.345 µg/mL | first compound 0.69 µg/mL
[1], partner 1.5 µg/mL | – | – | – | 0.977 | 0.91 | 0.602
[1], partner 3 µg/mL | – | – | – | 0.974 | 0.919 | 0.647
[1], partner 6 µg/mL | – | – | – | 0.972 | 0.849 | 0.569
[2], partner 1.25 µg/mL | 0.0392 | 0.0443 | 0.0452 | – | – | –
[2], partner 2.5 µg/mL | 0.0272 | 0.0296 | 0.0268 | – | – | –
[2], partner 5 µg/mL | 0.0508 | 0.0462 | 0.0464 | – | – | –

fitness, one replicate
Settings | first compound 0.001 µg/mL | first compound 0.002 µg/mL | first compound 0.0039 µg/mL | first compound 0.2 µg/mL | first compound 0.4 µg/mL | first compound 0.8 µg/mL
[1], partner 1.5 µg/mL | – | – | – | 0.966 | 0.911 | 0.615
[1], partner 3 µg/mL | – | – | – | 0.983 | 0.939 | 0.684
[1], partner 6 µg/mL | – | – | – | 0.994 | 0.952 | 0.696
[2], partner 1.25 µg/mL | 0.91 | 0.941 | 0.829 | – | – | –
[2], partner 2.5 µg/mL | 0.966 | 0.876 | 0.823 | – | – | –
[2], partner 5 µg/mL | 0.889 | 0.778 | 0.766 | – | – | –

Settings | Bliss interaction score
[3] | 0.0861
[4] | -0.0517
[5] | -0.0255
[6] | -0.0586
